# Values joined by “and” are separate entries in the source; they are usually repeats but may differ in a detail not shown here. Identical values can stand only once.
# Test system: 598228-144-R-J1-PDC complex spheroids, viability
# Test: Anticancer human tumor 598228-144-R-J1-PDC patient-derived serous endometrial adenocarcinoma cell line growth inhibition [CLK]
# Conditions: for viability, T/C: stronger effect = lower value
# Method in brief: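 Patient-derived tumor cells grown as complex spheroids with HUVEC endothelial cells and mesenchymal stem cells, treated with drug combinations. Concentrations descend in half-log steps from near clinical Cmax, or from 10 microM if Cmax unknown.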
# [1] = curve of first compound, second compound 0.0316 µM
# [2] = curve of first compound, second compound 0.1 µM
# [3] = curve of first compound, second compound 0.316 µM
# [4] = curve of first compound, second compound 1 µM
# [5] = curve of first compound, second compound 3.16 µM
# [6] = curve of first compound, second compound 10 µM
# [7] = second compound 0.0316 µM, first compound 0.0316 µM
# [8] = second compound 0.0316 µM, first compound 0.1 µM
# [9] = second compound 0.0316 µM, first compound 0.316 µM
# [10] = second compound 0.0316 µM, first compound 1 µM
# [11] = second compound 0.0316 µM, first compound 3.16 µM
# [12] = second compound 0.0316 µM, first compound 10 µM
# [13] = second compound 0.1 µM, first compound 0.0316 µM
# [14] = second compound 0.1 µM, first compound 0.1 µM
# [15] = second compound 0.1 µM, first compound 0.316 µM
# [16] = second compound 0.1 µM, first compound 1 µM
# [17] = second compound 0.1 µM, first compound 3.16 µM
# [18] = second compound 0.1 µM, first compound 10 µM
# [19] = second compound 0.316 µM, first compound 0.0316 µM
# [20] = second compound 0.316 µM, first compound 0.1 µM
# [21] = second compound 0.316 µM, first compound 0.316 µM
# [22] = second compound 0.316 µM, first compound 1 µM
# [23] = second compound 0.316 µM, first compound 3.16 µM
# [24] = second compound 0.316 µM, first compound 10 µM
# [25] = second compound 1 µM, first compound 0.0316 µM
# [26] = second compound 1 µM, first compound 0.1 µM
# [27] = second compound 1 µM, first compound 0.316 µM
# [28] = second compound 1 µM, first compound 1 µM
# [29] = second compound 1 µM, first compound 3.16 µM
# [30] = second compound 1 µM, first compound 10 µM
# [31] = second compound 3.16 µM, first compound 0.0316 µM
# [32] = second compound 3.16 µM, first compound 0.1 µM
# [33] = second compound 3.16 µM, first compound 0.316 µM
# [34] = second compound 3.16 µM, first compound 1 µM
# [35] = second compound 3.16 µM, first compound 3.16 µM
# [36] = second compound 3.16 µM, first compound 10 µM
# [37] = second compound 10 µM, first compound 0.0316 µM
# [38] = second compound 10 µM, first compound 0.1 µM
# [39] = second compound 10 µM, first compound 0.316 µM
# [40] = second compound 10 µM, first compound 1 µM
# [41] = second compound 10 µM, first compound 3.16 µM
# [42] = second compound 10 µM, first compound 10 µM
# 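Note: spheroids exposed to compounds for seven days before readout.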
# 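Throughout, for viability, T/C: 100% = DMSO vehicle control wells.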
smiles,measurement,setting,value
CC1(C)CCC(CN2CCN(c3ccc(C(=O)NS(=O)(=O)c4ccc(NCC5CCOCC5)c([N+](=O)[O-])c4)c(Oc4cnc5[nH]ccc5c4)c3)CC2)=C(c2ccc(Cl)cc2)C1 + CNC(=O)c1ccc(Nc2nc(OC3CCCC3)c3c(-c4ccc5nc(C)oc5c4)c[nH]c3n2)c(OC)c1,IC50,[1],7.05 µM
same,IC50,[2],6.44 µM
same,IC50,[3],6.42 µM
same,IC50,[4],6.64 µM
same,IC50,[5],6.11 µM
same,IC50,[6],6.42 µM
same,"viability, T/C",[7],96.4%
same,"viability, T/C",[8],116%
same,"viability, T/C",[9],105%
same,"viability, T/C",[10],96.5%
same,"viability, T/C",[11],100%
same,"viability, T/C",[12],28.1%
same,"viability, T/C",[13],105%
same,"viability, T/C",[14],97.6%
same,"viability, T/C",[15],103%
same,"viability, T/C",[16],99.4%
same,"viability, T/C",[17],99.4%
same,"viability, T/C",[18],19.5%
same,"viability, T/C",[19],106%
same,"viability, T/C",[20],104%
same,"viability, T/C",[21],98.5%
same,"viability, T/C",[22],103%
same,"viability, T/C",[23],105%
same,"viability, T/C",[24],16.6%
same,"viability, T/C",[25],106%
same,"viability, T/C",[26],99.9%
same,"viability, T/C",[27],96.5%
same,"viability, T/C",[28],95.4%
same,"viability, T/C",[29],99.2%
same,"viability, T/C",[30],22.8%
same,"viability, T/C",[31],99.1%
same,"viability, T/C",[32],91.1%
same,"viability, T/C",[33],79.9%
same,"viability, T/C",[34],84.3%
same,"viability, T/C",[35],89.3%
same,"viability, T/C",[36],21%
same,"viability, T/C",[37],86.3%
same,"viability, T/C",[38],89%
same,"viability, T/C",[39],83.3%
same,"viability, T/C",[40],81.2%
same,"viability, T/C",[41],97.6%
same,"viability, T/C",[42],26.6%
CCCS(=O)(=O)Nc1ccc(F)c(C(=O)c2c[nH]c3ncc(-c4ccc(Cl)cc4)cc23)c1F + CNC(=O)c1ccc(Nc2nc(OC3CCCC3)c3c(-c4ccc5nc(C)oc5c4)c[nH]c3n2)c(OC)c1,IC50,[1],9.99 µM
same,IC50,[2],> 10 µM
same,IC50,[3],9.64 µM
same,IC50,[4],> 10 µM
same,IC50,[5],> 10 µM
same,IC50,[6],9.06 µM
same,"viability, T/C",[7],117%
same,"viability, T/C",[8],104%
same,"viability, T/C",[9],113%
same,"viability, T/C",[10],105%
same,"viability, T/C",[11],93.5%
same,"viability, T/C",[12],49.5%
same,"viability, T/C",[13],102%
same,"viability, T/C",[14],101%
same,"viability, T/C",[15],102%
same,"viability, T/C",[16],111%
same,"viability, T/C",[17],115%
same,"viability, T/C",[18],51.6%
same,"viability, T/C",[19],99.4%
same,"viability, T/C",[20],105%
same,"viability, T/C",[21],87.2%
same,"viability, T/C",[22],100%
same,"viability, T/C",[23],83.5%
same,"viability, T/C",[24],48.6%
same,"viability, T/C",[25],96.5%
same,"viability, T/C",[26],104%
same,"viability, T/C",[27],94.8%
same,"viability, T/C",[28],99.3%
same,"viability, T/C",[29],88.4%
same,"viability, T/C",[30],57.1%
same,"viability, T/C",[31],86.7%
same,"viability, T/C",[32],83.9%
same,"viability, T/C",[33],91.7%
same,"viability, T/C",[34],102%
same,"viability, T/C",[35],83.3%
same,"viability, T/C",[36],55%
same,"viability, T/C",[37],89%
same,"viability, T/C",[38],82.5%
same,"viability, T/C",[39],92.5%
same,"viability, T/C",[40],99.6%
same,"viability, T/C",[41],67.5%
same,"viability, T/C",[42],48.4%
CC1COCCN1c1cc(C2(S(C)(=N)=O)CC2)nc(-c2ccnc3[nH]ccc23)n1 (stereo not drawn) + CN1CCN(c2cc(C(=O)Nc3cc4cc(-c5cnn(C)c5)ccc4cn3)ccn2)CC1,IC50,[1],6.13 µM
same,IC50,[2],3.01 µM
same,IC50,[3],< 0.0316 µM
same,IC50,[4],< 0.0316 µM
same,IC50,[5],< 0.0316 µM
same,IC50,[6],< 0.0316 µM
same,"viability, T/C",[7],126%
same,"viability, T/C",[8],125%
same,"viability, T/C",[9],105%
same,"viability, T/C",[10],102%
same,"viability, T/C",[11],63.5%
same,"viability, T/C",[12],38.3%
same,"viability, T/C",[13],127%
same,"viability, T/C",[14],122%
same,"viability, T/C",[15],110%
same,"viability, T/C",[16],89.1%
same,"viability, T/C",[17],46%
same,"viability, T/C",[18],28.6%
same,"viability, T/C",[19],17.1%
same,"viability, T/C",[20],16.4%
same,"viability, T/C",[21],17.9%
same,"viability, T/C",[22],14.8%
same,"viability, T/C",[23],16.3%
same,"viability, T/C",[24],13.3%
same,"viability, T/C",[25],1.37%
same,"viability, T/C",[26],1.72%
same,"viability, T/C",[27],2.93%
same,"viability, T/C",[28],1.07%
same,"viability, T/C",[29],2.89%
same,"viability, T/C",[30],7.44%
same,"viability, T/C",[31],1.86%
same,"viability, T/C",[32],3.02%
same,"viability, T/C",[33],2%
same,"viability, T/C",[34],1.65%
same,"viability, T/C",[35],3.13%
same,"viability, T/C",[36],7.42%
same,"viability, T/C",[37],1.07%
same,"viability, T/C",[38],1.83%
same,"viability, T/C",[39],2.32%
same,"viability, T/C",[40],0.91%
same,"viability, T/C",[41],2.14%
same,"viability, T/C",[42],3.43%
CN1CCN(c2cc(C(=O)Nc3cc4cc(-c5cnn(C)c5)ccc4cn3)ccn2)CC1,"viability, T/C",compound 0.316 µM,17.4% [middle of 11 runs]
same,"viability, T/C",compound 1 µM,3.28% [middle of 12 runs]
same,"viability, T/C",compound 3.16 µM,2.39% [middle of 11 runs]
same,"viability, T/C",compound 10 µM,1% [middle of 11 runs]
same,IC50,"compound alone, run of 09/18/2023",216 nM [middle of 10 runs]
Nc1ccccc1NC(=O)c1ccc(CNC(=O)OCc2cccnc2)cc1,"viability, T/C",compound 0.0316 µM,104% and 85.5%
same,"viability, T/C",compound 0.1 µM,94.5% and 92.8%
same,"viability, T/C",compound 0.316 µM,78.2% and 73.5%
same,"viability, T/C",compound 1 µM,35.4% and 61.1%
same,"viability, T/C",compound 3.16 µM,20% and 20.5%
same,"viability, T/C",compound 10 µM,3.38% and 10.9%
same,IC50,curve of compound,0.713 µM and 1.28 µM

# Reference: PubChem BioAssay AID2060614 (Molecular Pharmacology Branch, DTP, NCI, 2025)
